# Laboratory results taken from patent US10227361B2, “Fused imidazobenzothiazole compounds” (TORRENT PHARMACEUTICALS LIMITED, priority 2014, dated 2019).
# How the values were obtained:
# [1] = rheumatoid arthritis; possibly; cited from earlier work
# [2] = tested on: tobacco smoke induced airway inflammation in mice; test: Acute mouse model of tobacco smoke induced airway inflammation (BALF neutrophils); type: in vivo; details: BAL fluid, exposure 25 minutes; for Neutrophil (*10^3 cells/animal): Mean ± SEM
# Description: The tobacco smoke induced airway inflammation model is used for in vivo efficacy of compound. Many investigators have used acute tobacco smoke (TS) exposure in rodents as models of airway inflammation for quick screening of anti-inflammatory therapies for COPD (J Pharmacol Exp Ther. 2008; 324(3):921-9; J Pharmacol Exp Ther. 2010; 332(3):764-75; Journal of Inflammation 2013, 10(Suppl 1):31 and Eur Respir J Suppl 2006; 663s:3850). Given its position as predominant cause of COPD, animal models using TS exposure would appear to be the logical choice for investigation (Respir Res. 2004; 2; 5:18).
# A: Efficacy Studies in Acute Mouse Model of Airway Inflammation
# Mice were exposed to tobacco smoke (TS) in an acrylic chamber. Animals were exposed to TS from 8, 12, 16 cigarettes on day1, day2, day 3 respectively. From day 4 onwards till day 11, animals were exposed to TS from 20 cigarettes per day. On 11 days of exposure of mice to TS, significant inflammatory cell recruitment, predominantly neutrophils, to lungs was observed as compared to air exposed control mice (BALF neutrophil levels, nil in air control group vs 93.8±11.7*10^3 cells/animal in smoke exposed vehicle group).
# Lung delivery of test compound was achieved by whole body aerosol exposure for 25 minutes in a chamber. Mice were divided in different dose groups and exposed in a chamber for 25 minutes with vehicle or Compound No. 22 (0.3 mg/ml) or Compound No. 22 (3 mg/ml)) or Compound No. 31 (0.3 mg/ml) or Compound No. 31 (1.0 mg/ml). A total quantity of 3.5 ml of either vehicle or test compound formulation (suspension formulation with D90<5μ, with Malvern Mastersizer®) was nebulized in a chamber to respective groups over 25 mins period. Test compounds were administered 2 hr prior to TS exposure from day 6 to day 11. Bronchoalveolar lavage (BAL) was performed 24 hr post last TS exposure.
# Trachea of animal was cannulated using catheter. Phosphate Buffer Saline (PBS) was used as lavage fluid. A volume of 0.5 ml was gently instilled and withdrawn and collected in microcentrifuge tube placed on ice. This procedure was repeated further 2 times.
# (§1) Lavage fluid was separated from cells by centrifugation and supernatant separated. The cell pallet was resuspended in known volume of PBS. Cells in aliquot were stained using Turk solution and total cell numbers were calculated by counting Turk stained aliquot under microscope using haemocytometer.
# (§2) The residual cell suspension was resuspended and slides prepared using cyto centrifuge technique (Cytospin 4, Thermo Shandon). The slides were then fixed with methanol, air dried and stained with May Grunwald Giemsa stain. Up to 300 cells were counted and differentiated using standard morphometric techniques under light microscopy.
# All results are presented at individual data for each animal and mean value calculated for each group. Percentage inhibition for the neutrophil was calculated for Compound No. 22 & 31 treatment group against vehicle group.
# [3] = biological target: T1, purified recombinant human p38 alpha MAPK (Homo sapiens, UniProt Q16539); test: Inhibition of p38 alpha MAPK activity: TR-FRET kinase assay; type: biochemical; details: read-out: P38α Inhibition
# T1 construct: purchased Millipore, USA
# T1 sequence (Q16539 whole entry): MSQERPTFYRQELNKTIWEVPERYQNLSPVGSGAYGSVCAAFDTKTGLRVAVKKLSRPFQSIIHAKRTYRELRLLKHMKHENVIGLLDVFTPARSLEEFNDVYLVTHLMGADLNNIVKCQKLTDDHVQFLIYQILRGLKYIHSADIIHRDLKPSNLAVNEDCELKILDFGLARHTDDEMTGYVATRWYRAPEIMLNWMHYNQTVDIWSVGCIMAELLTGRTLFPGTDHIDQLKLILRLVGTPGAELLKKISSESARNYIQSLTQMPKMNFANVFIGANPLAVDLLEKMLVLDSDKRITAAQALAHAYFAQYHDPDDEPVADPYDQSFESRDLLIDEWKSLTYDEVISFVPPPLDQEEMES
# Protocol: Inhibition of p38 Alpha MAPK Activity: Time-Resolved Fluorescence Resonance Energy Transfer Kinase Standard Assay (TR-FRET Assay)
# Compounds of present invention at various concentrations were premixed with DMSO. The experiment was initiated by mixing 0.5% 1.0% DMSO as vehicle/compounds with purified recombinant human p38 alpha MAPK (Millipore, USA) in the wells and 15 min incubation at RT. Thereafter, 30 nM of Biotinylated GST-ATF2 (Activation Transcription Factor2) and 100 μM of ATP were added in to the wells containing reaction mixture, followed by reincubation for 60 minutes at RT. Reaction was terminated by addition of 10 mM of EDTA and detection reagent containing anti-phosphothreonine ATF2 antibody (Perkin Elmer, USA) labelled with europium chelate and APC (Allophycocyanin) labeled streptavidin, into the reaction mixture which was further incubated for 60 minutes at room temperature. The degree of phosphorylation of the substrate (GST-ATF2) was measured using Envision multimode reader (Perkin Elmer). Percentage inhibition of p38 kinase activity was calculated by determining ratio of specific europium 665 nm energy transfer signal to reference 615 nm signal.
# [4] = tested on: tobacco smoke (TS) and LPS induced chronic COPD model in guinea pigs; test: Chronic model of COPD in guinea pigs (TS and LPS, 18 weeks); type: in vivo
# Protocol: (II) Efficacy Studies in Chronic Model of COPD in Guinea Pigs
# Guinea pigs were exposed to tobacco smoke (TS) and LPS in an acrylic chamber. Exposure to TS and LPS is given in the manner as illustrated in FIG. 3 in a week for a total of 18 weeks.
# Lung delivery of test material was achieved by whole body aerosol exposure for 75 minutes in a chamber. Guinea pig were divided in different dose groups and exposed to vehicle or Compound No. 31 (2 mg/ml). A total quantity of 7.0 ml of either vehicle or Compound No. 31 (suspension formulation with D90<5μ, with Malvern Mastersizer®) was nebulized in chambers to respective groups over 75 mins period. Compound No 31 was administered 2 hr prior to TS/LPS exposure once daily from week 9 to week 18. Control animals were exposed to room air instead of TS and PBS instead of LPS. Lung function and bronchoalveolar lavage (BAL) for each animal was performed 24 hr post last TS exposure.
# Lung function assessment in anesthetized and tracheotomized animal was carried out using PFT maneuvers (BUXCO, USA) for determination of various parameters such as Functional Residual Capacity (FRC), Residual volume (RV), Pressure volume and flow volume relationships.
# Trachea of animal was cannulated using catheter. Phosphate Buffer Saline (PBS) was used as lavage fluid. A volume of 5.0 ml was gently instilled and withdrawn and collected in microcentrifuge tube placed on ice. This procedure was repeated further 5 times.
# as §1, §2
# After collection of BALF lung was fixed under constant pressure using neutral buffered formaline, which is to be used further for histopathological analysis. Hematoxylin and eosin stained slides were used for assessment of lung inflammatory cell influx and alveolar & epithelial inflammatory changes. Periodic acid-Schiff-diastase stained slides were used to evaluate mucin secreting cells and Masson's trichome stained slides were used for assessment of collagen fibers in parenchyma.
# All results are presented at individual data for each animal and mean value calculated for each group. Percentage inhibition for the neutrophil was calculated for compound no 31 group against vehicle group.
# [5] = tested on: tobacco smoke induced airway inflammation in guinea pig; test: Acute guinea pig model of tobacco smoke induced airway inflammation (BALF neutrophils); type: in vivo, Guinea pigs; details: BAL fluid, 6 mg/ml aerosol, exposure 75 minutes
# Description: B. (I) Efficacy Studies in Acute Guinea Pig Model of Airway Inflammation
# Guinea pigs were exposed to tobacco smoke (TS) in an acrylic chamber. Animals were exposed to TS from 5, 10, 15 cigarettes on day 1, day 2, day 3 respectively. From day 4 onwards till day 11, animals were exposed to TS from 15 cigarettes per day. On 11 days of exposure of guinea pig to TS, significant inflammatory cell recruitment, predominantly neutrophils, to lungs was observed as compared to air exposed control guinea pig (BALF neutrophil levels, 0.23±0.052*10^6 cells/animal in air control group vs 3.5±0.62*10^6 cells/animal in smoke exposed vehicle group).
# Lung delivery of test compound was achieved by whole body aerosol exposure for 75 minutes in a chamber. […] A total quantity of 7.0 ml of either vehicle or test compound formulation (suspension formulation with D90<5μ, with Malvern Mastersizer®) was nebulized in chambers to respective groups over 75 mins period. […]
# Lavage fluid was separated from cells by centrifugation and supernatant separated. […] Cells in aliquot were stained using Turk solution and total cell numbers were calculated by counting Turk stained aliquot under microscope using haemocytometer. […]
# All results are presented at individual data for each animal and mean value calculated for each group. Percentage inhibition for the neutrophil was calculated for Compound No 31 treatment group against vehicle group.
# [6] = treated up to 12-24 weeks; cited from earlier work
# [7] = dogs, 6-month safety study; cited from earlier work
# [8] = rheumatoid arthritis patients; single low dose tested; compared to placebo; cited from earlier work
structure (smiles),measurement,setting,value
Cc1ccc(-n2nc(C(C)(C)C)cc2NC(=O)Nc2ccc(OCCN3CCOCC3)c3ccccc23)cc1 [BIRB-796],reason for withdrawal from Phase II clinical trials,[1],liver enzyme elevations
"CC(C)(C)c1cc(NC(=O)NCc2ccccc2Oc2ccc3c(c2)sc2ncc(CO)n23)n(-c2ccc(O)c(Cl)c2)n1 [Compound 22, 1-[3-tert-butyl-1-(3-chloro-4-hydroxyphenyl)-1H-pyrazol-5-yl]-3-(2-{[3-(hydroxymethyl)imidazo[2,1-b][1,3]benzothiazol-7-yl]oxy}benzyl)urea]","% Inhibition (neutrophil, against vehicle group)",[2]; 0.3 mg/ml aerosol,24%
same,Neutrophil (*10^3 cells/animal),[2]; 0.3 mg/ml aerosol,71.2 ± 13.6 *10^3 cells/animal
same,"% Inhibition (neutrophil, against vehicle group)",[2]; 3 mg/ml aerosol,62%
same,Neutrophil (*10^3 cells/animal),[2]; 3 mg/ml aerosol,35.2 ± 3.7 *10^3 cells/animal
same,inhibition at 1 µM,[3]; Concentration 1 μM,80 to 100%
"COCc1cnc2sc3cc(Oc4ccccc4CNC(=O)Nc4cc(C(C)(C)C)nn4-c4ccc(O)c(Cl)c4)ccc3n12 [Compound 31, 1-[3-tert-butyl-1-(3-chloro-4-hydroxyphenyl)-1H-pyrazol-5-yl]-3-(2-{[3-(methoxymethyl)imidazo[2,1-b][1,3]benzothiazol-7-yl]oxy}benzyl)urea]","% Inhibition (neutrophil, against vehicle group)",[2]; 0.3 mg/ml aerosol,60%
same,Neutrophil (*10^3 cells/animal),[2]; 0.3 mg/ml aerosol,40.3 ± 6.2 *10^3 cells/animal
same,"% Inhibition (neutrophil, against vehicle group)",[2]; 1.0 mg/ml aerosol,80%
same,Neutrophil (*10^3 cells/animal),[2]; 1.0 mg/ml aerosol,20.4 ± 3.8 *10^3 cells/animal
same,inhibition at 0.1 µM,[3]; Concentration 100 nM,80 to 100%
same,"% inhib^n (neutrophil, against vehicle group)","[4]; guinea pig chronic COPD model, BALF, 2 mg/ml aerosol, 75 minutes",52%
same,Neutrophil (*10^6cells),"[4]; guinea pig chronic COPD model, BALF, 2 mg/ml aerosol, 75 minutes, once daily week 9 to 18, Mean ± SEM",3.3 ± 0.71 *10^6cells
same,Composite score (Range),"[4]; lung remodeling, histopathological analysis of lung tissue, 2 mg/ml",0.4 (0.1 to 0.5)
same,Average number of mucin secreting cells/10 high power field (Range),"[4]; mucus secretion, 2 mg/ml",301 (190-420) cells/10 high power field
same,"% Inhibition (neutrophil, against vehicle group)",[5],48%
same,Neutrophil (*10^6 cells/animal),[5]; Mean ± SEM,1.8 ± 0.28 *10^6 cells/animal
Cc1c(F)cc(C(=O)NC2CC2)cc1-c1ccc(C(=O)NCC(C)(C)C)cn1 [Losmapimod],tolerability in clinical studies,[6],well tolerated
CNC(=O)c1ccc(C)c(-n2c(C)cc(OCc3ccc(F)cc3F)c(Br)c2=O)c1 [PH-797804],tolerability in clinical studies,[6],well tolerated
O=c1ncn2nc(Sc3ccc(F)cc3F)ccc2c1-c1c(Cl)cccc1Cl [Vx-745],toxicity in safety study,[7],undisclosed CNS toxicity
same,clinical benefit,[8],significant clinical benefit compared to placebo
